We go through 3 molecules from ChEMBL document CHEMBL5608198 (Eur J Med Chem, 2024).

The source made the active and inactive calls. The rule behind the calls is not given here.

The test system of the experiment is PBMC. Briefly: Effect on cell proliferation of human PBMC into human Vgamma9Vdelta2 T cells assessed as decrease in HMBPP response upto 100 uM incubated for 3 days followed by compound washout with recurrent addition of IL-2 on every 3 days measured after 11 days in presence of HMBPP by flow cytometry. Format: functional, cell-based. The following applies: time 3.0 day.

As for `O=P(O)(O)OP(=O)(O)OC/C=C(/CO)Cc1ccc(Br)cc1`, the result was Active.

On to `O=P(O)(O)OP(=O)(O)OC/C=C(/CO)Cc1ccccc1`, for which the outcome was Active.

In the case of `Cc1ccc(C/C(=C\COP(=O)(O)OP(=O)(O)O)CO)cc1`, the outcome was Active.
